Measurements as given in US20260258035A1, “FIVE-MEMBERED AND SIX-MEMBERED NITROGEN-CONTAINING COMPOUND, AND INTERMEDIATE, PREPARATION METHOD AND USE THEREOF” (HANGZHOU SYNRX THERAPEUTICS BIOMEDICAL TECHNOLOGY CO., LTD., priority 2022, published 2026).

How the values were obtained:
HCC1806 = test: Cell viability assay (CellTiter-Glo); assay type: cell-based, Human; settings: Homo sapiens, HCC1806, 168 h, HCC1806, 7 days, CellTiter-Glo; read-out: IC50 (nM) in cell viability assay
PARG = PARG (Homo sapiens, UniProt Q86W56); test: Biochemical assay (PARG, TFMU-ADPr substrate)
Chain of PARG (Q86W56 whole entry): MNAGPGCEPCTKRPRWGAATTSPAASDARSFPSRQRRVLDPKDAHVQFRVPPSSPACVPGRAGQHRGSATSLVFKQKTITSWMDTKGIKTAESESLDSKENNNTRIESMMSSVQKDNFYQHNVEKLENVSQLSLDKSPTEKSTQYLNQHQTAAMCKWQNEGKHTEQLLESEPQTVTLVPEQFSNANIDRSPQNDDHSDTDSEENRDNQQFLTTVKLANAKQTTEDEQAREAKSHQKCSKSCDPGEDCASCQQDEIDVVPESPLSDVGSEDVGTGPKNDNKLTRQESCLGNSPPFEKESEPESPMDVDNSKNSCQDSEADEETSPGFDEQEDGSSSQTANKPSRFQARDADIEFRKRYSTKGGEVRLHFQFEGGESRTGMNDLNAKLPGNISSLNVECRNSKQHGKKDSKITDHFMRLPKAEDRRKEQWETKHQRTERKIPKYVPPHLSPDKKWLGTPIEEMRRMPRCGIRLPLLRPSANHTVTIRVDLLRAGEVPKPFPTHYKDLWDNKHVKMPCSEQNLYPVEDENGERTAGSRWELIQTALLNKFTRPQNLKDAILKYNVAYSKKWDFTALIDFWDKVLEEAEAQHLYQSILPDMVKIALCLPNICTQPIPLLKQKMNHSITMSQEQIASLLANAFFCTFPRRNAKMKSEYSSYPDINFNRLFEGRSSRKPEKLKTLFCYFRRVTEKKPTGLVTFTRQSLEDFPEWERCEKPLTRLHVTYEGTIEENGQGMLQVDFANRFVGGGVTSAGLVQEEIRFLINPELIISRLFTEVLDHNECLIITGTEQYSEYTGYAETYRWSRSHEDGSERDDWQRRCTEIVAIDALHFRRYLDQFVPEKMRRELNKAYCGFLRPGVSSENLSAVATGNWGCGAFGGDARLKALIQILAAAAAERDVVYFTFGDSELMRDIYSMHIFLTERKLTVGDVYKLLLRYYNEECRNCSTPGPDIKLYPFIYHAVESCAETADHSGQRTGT

[1] = 4 nM PARG, 66.2 uM TFMU-ADPr, 3 min at room temperature

IC50 (HCC1806) [nM] | IC50 (PARG; [1]) [nM] | IC50 (PARG; PARG, TFMU-ADPr substrate) [nM] | Compound
2320 | – | – | N#CC1(NS(=O)(=O)c2cc(C#Cc3cncs3)c3cnc(-c4nnc(C(F)F)s4)n3c2)CC1 [Example 374, N-(1-cyanocyclopropyl)-3-(5-(difluoromethyl)-1,3,4-thiadiazol-2-yl)-8-(thiazol-5-ylethynyl)imidazo[1,5-a]pyridine-6-sulfonamide]
530 | – | – | C[C@H]1CN(c2cc(S(=O)(=O)NC3(C)COC3)cn3c(-c4nnc(C(F)F)s4)nc(Cl)c23)C[C@H](CO)O1 [Example 397, 1-chloro-3-(5-(difluoromethyl)-1,3,4-thiadiazol-2-yl)-8-((2R,6S)-2-(hydroxymethyl)-6-methylmorpholino)-N-(3-methyloxetan-3-yl)imidazo[1,5-a]pyridine-6-sulfonamide]
30000 | – | – | N#CC1(NS(=O)(=O)c2cc(C#Cc3c[nH]cn3)c3cnc(-c4nnc(C(F)F)s4)n3c2)CC1 [Example 376, 8-((1H-imidazol-4-yl)ethynyl)-N-(1-cyanocyclopropyl)-3-(5-(difluoromethyl)-1,3,4-thiadiazol-2-yl)imidazo[1,5-a]pyridine-6-sulfonamide]
855 | – | – | N#CC1(NS(=O)(=O)c2cc(C#CC3CCOC3)c3cnc(-c4nnc(C(F)F)s4)n3c2)CC1 (stereo not drawn) [Example 375, N-(1-cyanocyclopropyl)-3-(5-(difluoromethyl)-1,3,4-thiadiazol-2-yl)-8-((tetrahydrofuran-3-yl)ethynyl)imidazo[1,5-a]pyridine-6-sulfonamide]
– | 100 to 500 | 178 | N#CC1(NS(=O)(=O)c2cc(NC3CCC(OC(F)(F)F)C3)c3cnc(-c4nnc(C(F)F)s4)n3c2)CC1 (stereo not drawn) [Example 151, N-(1-cyanocyclopropyl)-3-(5-(difluoromethyl)-1,3,4-thiadiazol-2-yl)-8-((3-(trifluoromethoxy)cyclopentyl)amino)imidazo[1,5-a]pyridine-6-sulfonamide]
– | < 100 | 40 | C=CC(=O)N1CC=C(c2cnc3c(N4CCN(C(=O)C(C)C)CC4)cc(S(=O)(=O)NC4(C#N)CC4)cn23)C1 [Example 18, 3-(1-acryloyl-2,5-dihydro-1H-pyrrol-3-yl)-N-(1-cyanocyclopropyl)-8-(4-isobutyrylpiperazin-1-yl)imidazo[1,2-a]pyridine-6-sulfonamide]
– | – | 9690 | CC(C)C(=O)N1CCN(c2cc(S(=O)(=O)NC3(C#N)CC3)cn3c(-c4cc5n(n4)CCCC5F)cnc23)CC1 (stereo not drawn) [Example 8]
– | < 100 | 41.7 | CC1(O)CCN(c2cc(S(=O)(=O)NC3(CF)COC3)cn3c(-c4nnc(C(F)F)s4)ncc23)CC1 [Example 73, 3-(5-(difluoromethyl)-1,3,4-thiadiazol-2-yl)-N-(3-(fluoromethyl)oxetan-3-yl)-8-(4-hydroxy-4-methylpiperidin-1-yl)imidazo[1,5-a]pyridine-6-sulfonamide]
– | < 100 | 38.4 | CC(C)C(=O)N1CCN(c2cc(S(=O)(=O)NC3(COC(F)(F)F)CC3)cn3c(-c4nnc(C(F)F)s4)ncc23)CC1 [Example 49, 3-(5-(difluoromethyl)-1,3,4-thiadiazol-2-yl)-8-(4-isobutyrylpiperazin-1-yl)-N-(1-((trifluoromethoxy)methyl)cyclopropyl)imidazo[1,5-a]pyridine-6-sulfonamide]
– | < 100 | 29.8 | CN1CCN(c2cc(S(=O)(=O)NC3(C#N)CC3)cn3c(-c4nnc(C(F)F)s4)ncc23)CC1=O [Example 41, N-(1-cyanocyclopropyl)-3-(5-(difluoromethyl)-1,3,4-thiadiazol-2-yl)-8-(4-methyl-3-oxopiperazin-1-yl)imidazo[1,5-a]pyridine-6-sulfonamide]
– | < 100 | 72.4 | C[C@@H]1CN(c2cc(S(=O)(=O)NC3CC3)cn3c(-c4nnc(C(F)F)s4)nnc23)CCN1C(=O)C1(C)CC1 [Example 118, (R)-N-cyclopropyl-3-(5-(difluoromethyl)-1,3,4-thiadiazol-2-yl)-8-(3-methyl-4-(1-methylcyclopropane-1-carbonyl)piperazin-1-yl)-[1,2,4]triazolo[4,3-a]pyridine-6-sulfonamide]
– | 100 to 500 | 280 | N#CC1(NS(=O)(=O)c2cc(-c3ccc(OC(F)(F)F)cc3)c3cnc(-c4nnc(C(F)F)s4)n3c2)CC1 [Example 141, N-(1-cyanocyclopropyl)-3-(5-(difluoromethyl)-1,3,4-thiadiazol-2-yl)-8-(4-(trifluoromethoxy)phenyl)imidazo[1,5-a]pyridine-6-sulfonamide]
– | 500 to 1000 | – | CC(C)C(=O)N1CCN(c2cc(S(=O)(=O)NC3(C#N)CC3)cn3c(-c4cc5n(n4)CC(F)C5)cnc23)CC1 (stereo not drawn) [Example 10, N-(1-cyanocyclopropyl)-3-(5-fluoro-5,6-dihydro-4H-pyrrolo[1,2-b]pyrazol-2-yl)-8-(4-isobutyrylpiperazin-1-yl)imidazo[1,2-a]pyridine-6-sulfonamide]
– | < 100 | 10.9 | CC(=O)N1CC2(CC=C(c3cc(S(=O)(=O)NC4(C#N)CC4)cn4c(-c5nnc(C(F)F)s5)cnc34)C2)C1 [Example 13, 8-(2-acetyl-2-azaspiro[3.4]oct-6-en-6-yl)-N-(1-cyanocyclopropyl)-3-(5-(difluoromethyl)-1,3,4-thiadiazol-2-yl)imidazo[1,2-a]pyridine-6-sulfonamide]
– | < 100 | 6.31 | O=S(=O)(NC1(CF)CC1)c1cc(N2CCC(O)C2)c2cnc(-c3nnc(C(F)F)s3)n2c1 (stereo not drawn) [Example 46, 3-(5-(difluoromethyl)-1,3,4-thiadiazol-2-yl)-N-(1-(fluoromethyl)cyclopropyl)-8-(3-hydroxypyrrolidin-1-yl)imidazo[1,5-a]pyridine-6-sulfonamide]
– | 500 to 1000 | 649 | CC(C)C(=O)N1CCN(c2cc(S(=O)(=O)NC(C3CC3)C(F)(F)F)cn3c(-c4nnc(C(F)F)s4)ncc23)CC1 (stereo not drawn) [Example 36, N-(1-cyclopropyl-2,2,2-trifluoroethyl)-3-(5-(difluoromethyl)-1,3,4-thiadiazol-2-yl)-8-(4-isobutyrylpiperazin-1-yl)imidazo[1,5-a]pyridine-6-sulfonamide]
– | < 100 | 34.7 | N#CC1(NS(=O)(=O)c2cc(N3CCC(F)(CO)CC3)c3cnc(-c4nnc(C(F)F)s4)n3c2)CC1 [Example 90, N-(1-cyanocyclopropyl)-3-(5-(difluoromethyl)-1,3,4-thiadiazol-2-yl)-8-(4-fluoro-4-(hydroxymethyl)piperidin-1-yl)imidazo[1,5-a]pyridine-6-sulfonamide]
– | < 100 | 18 | N#CC1(NS(=O)(=O)c2cc(N3CCC(O)C3)c3cnc(-c4nnc(C(F)F)s4)n3c2)CC1 (stereo not drawn) [Example 42, N-(1-cyanocyclopropyl)-3-(5-(difluoromethyl)-1,3,4-thiadiazol-2-yl)-8-(3-hydroxypyrrolidin-1-yl)imidazo[1,5-a]pyridine-6-sulfonamide]
– | < 100 | 178 | CCC(=O)N1CC=C(c2cnc3c(N4CCN(C(=O)C(C)C)CC4)cc(S(=O)(=O)NC4(C#N)CC4)cn23)C1 [Example 20, N-(1-cyanocyclopropyl)-8-(4-isobutyrylpiperazin-1-yl)-3-(1-propionyl-2,5-dihydro-1H-pyrrol-3-yl)imidazo[1,2-a]pyridine-6-sulfonamide]
– | – | 1540 | Cc1ncc(-c2cnc3c(N4CCN(C(=O)C(C)C)CC4)cc(S(=O)(=O)NC4(C#N)CC4)cn23)s1 [Example 1, N-(1-cyanocyclopropyl)-8-(4-isobutyrylpiperazin-1-yl)-3-(2-methylthiazol-5-yl)imidazo[1,2-a]pyridine-6-sulfonamide]
